Source: ChEMBL document CHEMBL3045990, “Inhibition of Cathepsin D protease activity by Punica granatum fruit peel extracts, isolates, and semisynthetic analogs” (Med Chem Res, 2013)
Converted amounts (≈) assume the structure as drawn. The source made the active and inactive calls. The calls are words filed in the database; no cut-off is given here.

Columns and labels:
[1] = biological target: T1, Cathepsin D (Homo sapiens, UniProt P07339); experiment: Inhibition of cathepsin D (unknown origin) using hemoglobin as substrate at 20 ug/mL after 30 min by spectrophotometric analysis
[2] = biological target: T1, Cathepsin D; experiment: Inhibition of cathepsin D (unknown origin) using hemoglobin as substrate after 30 min by spectrophotometric analysis
[3] = test system: MDA-MB-231; experiment: Cytotoxicity against Homo sapiens (human) MDA-MB-231 cells assessed as growth inhibition by MTT assay; format: functional, cell-based

T1 sequence (P07339 65-162 limits assumed): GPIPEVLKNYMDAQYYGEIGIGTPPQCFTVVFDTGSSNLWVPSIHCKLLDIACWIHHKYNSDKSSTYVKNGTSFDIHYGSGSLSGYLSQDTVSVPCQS
T1 sequence (P07339 169-412 limits assumed): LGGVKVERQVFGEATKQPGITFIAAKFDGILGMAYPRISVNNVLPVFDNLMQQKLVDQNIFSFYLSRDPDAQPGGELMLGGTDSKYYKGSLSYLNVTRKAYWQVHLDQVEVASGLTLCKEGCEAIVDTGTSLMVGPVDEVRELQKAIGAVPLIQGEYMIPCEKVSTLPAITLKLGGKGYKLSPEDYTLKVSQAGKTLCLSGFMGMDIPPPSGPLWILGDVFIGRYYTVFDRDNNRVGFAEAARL

Compound | inhibition [1] | IC50 [2] | growth inhibition (GI) [3] | IC50 ([3]; Homo sapiens, MDA-MB-231)
CC(=O)O[C@H]1CC[C@]2(C)[C@H]3CC=C4[C@@H]5[C@@H](C)[C@H](C)CC[C@]5(C(=O)O)CC[C@@]4(C)[C@]3(C)CC[C@H]2C1(C)C | inactive |  |  | 
C[C@H]1[C@H](C)CC[C@]2(C(=O)O)CC[C@]3(C)C(=CC[C@@H]4[C@@]5(C)CCC(=O)C(C)(C)[C@@H]5CC[C@]43C)[C@H]12 [URSONIC ACID] |  | 14.1 µM | <5% | 
C[C@H]1[C@H](C)CC[C@]2(C(N)=O)CC[C@]3(C)C(=CC[C@@H]4[C@@]5(C)CC[C@H](O)C(C)(C)[C@@H]5CC[C@]43C)[C@H]12 | inactive |  |  | 
CC[C@H](CC[C@@H](C)[C@H]1CC[C@H]2[C@@H]3CC=C4C[C@@H](O)CC[C@]4(C)[C@H]3CC[C@]12C)C(C)C | inactive |  |  | 
CC[C@H](CC[C@@H](C)[C@H]1CC[C@H]2[C@@H]3CC=C4CC(=O)CC[C@]4(C)[C@H]3CC[C@]12C)C(C)C [BETA-SITOSTENONE] |  | 9.4 µM |  | 
C[C@H]1[C@H](C)CC[C@]2(C(=O)O)CC[C@]3(C)C(=CC[C@@H]4[C@@]5(C)CC[C@H](O)C(C)(C)[C@@H]5CC[C@]43C)[C@H]12 [URSOLIC ACID] |  | 18.2 µM | <5% | 
COC(=O)[C@]12CC[C@@H](C)[C@H](C)[C@H]1C1=CC[C@@H]3[C@@]4(C)CC[C@H](O)C(C)(C)[C@@H]4CC[C@@]3(C)[C@]1(C)CC2 [METHYL URSOLATE] |  | 9.45 µM | <5% | 
O=C(/C=C/C=C/c1ccc2c(c1)OCO2)N1CCCCC1 [PIPERINE] |  | 42.3 µM |  | 58.4 µg/mL (≈ 205 µM)
CC[C@H](CC[C@@H](C)[C@H]1CC[C@H]2[C@@H]3CC=C4C[C@@H](OC(C)=O)CC[C@]4(C)[C@H]3CC[C@]12C)C(C)C | inactive |  |  | 
